Tests used:
MCF-7 cells = test: Cell growth inhibition using MCF-7 cells; assay type: cell-based; conditions: Homo sapiens, MCF7
Source text: (§1) Compounds can be evaluated for their ability to inhibit in vitro the growth of HeLa cells, an immortal cell line derived from a human cervical carcinoma commonly used to evaluate the cytotoxicity of potential therapeutic agents. The following data reflect the cytotoxicity of selected examples of the present invention. The values given represent the concentration of test compound required to inhibit by 50% the uptake of Alamar Blue (Biosource International, Camarillo, Calif.) by HeLa cell cultures, which correlates directly with the overall levels of cellular metabolism in the culture, and is generally accepted as an appropriate marker of cell growth. The test was conducted according to the method of Ahmed et al. (J. Immunol. Methods 1994, 170, 211). […] Compounds were similarly evaluated for cell growth inhibition using MCF-7 cells and MCF-7/ADR cells.

MCF-7/ADR cells = test: Cell growth inhibition using MCF-7/ADR cells; assay type: cell-based; conditions: Homo sapiens, NCI/ADR-RES
Source text: as §1

HeLa cells = test: Inhibition of HeLa cell growth (Alamar Blue uptake); assay type: cell-based; conditions: Homo sapiens; concentration required to inhibit by 50% the uptake of Alamar Blue by HeLa cell cultures
Source text: as §1

IC50 (MCF-7 cells): 0.15 µM
IC50 (MCF-7/ADR cells): 0.5 µM
IC50 (HeLa cells): 0.15 µM
melting point: 145 to 146 °C
SMILES: COc1ccc(NS(=O)(=O)c2cc(OC)c(OC)c(OC)c2)cc1O [Example 1, 1-[(3-Hydroxy-4-methoxyphenyl)aminosulfonyl]-3,4,5-trimethoxybenzene]

Source: US6583161B1, “Benzenesulfonamides and benzamides as therapeutic agents” (Tularik Inc., priority 1998, dated 2003)
